Laboratory results taken from US20030109525A1, “Crystalline thiazine oxazolidinones” (PHARMACIA & UPJOHN COMPANY, priority 2001, published 2003).

Legend:
[1] = Bulk drug stability (storage at elevated temperature and humidity, HPLC assay); assay type: physicochemical
Protocol: As referred to in the present application, “stable” in bulk drug stability tests means that at least about 90% by weight, preferably at least about 95% by weight, and more preferably at least about 99% by weight of the bulk drug remains unchanged after storage under the indicated conditions for the indicated time.
Aliquots (about 0.3 mg) of bulk anhydrous crystalline N-({(5S)-3-[4-(1,1-dioxido-4-thiomorpholinyl)-3,5-difluorophenyl]-2-oxo-1,3-oxazolidin-5-yl}methyl)acetamide were weighed into 2-mL vials. The uncapped vials were placed either in a 75% relative humidity chamber (desiccator containing water saturated with sodium chloride) or in a dry chamber (desiccator containing Drierite). The chambers were placed in temperature controlled cabinets at 56° C. and 70° C. A single vial was removed from each desiccator at selected time points and was assayed using high pressure liquid chromatography (HPLC).

[2] = Hygroscopicity by dynamic moisture sorption gravimetry (DMSG); assay type: physicochemical; conditions: 25° C.
Protocol: X-ray diffraction (XRD) patterns were measured on a Scintag X2 diffractometer (Thermo ARL, Ecublens, Switzerland) equipped with a theta-theta goniometer. Single crystal x-ray diffraction was carried out on a Bruker SMART 6K CCD Area Detector diffractometer (Bruker AXS, Karlsruhe, Germany). Mass spectrometry (MS) (ionization type) was carried out on a Micromass Platform II spectrometer (Micromass, Manchester, United Kingdom). High pressure liquid chromatography (HPLC) was carried out on an Agilent 1100 Series chromatograph (Agilent Technologies, Palo Alto, Calif.). Melting points were determined using a TA Instruments 2920 differential scanning calorimeter (TA Instruments, New Castle, Del.) module with a Thermal Analyst 5000 controller. Hygroscopicity was assessed by dynamic moisture sorption gravimetry (DMSG) using a Controlled Atmosphere Microbalance (Pharmacia Corp., Kalamazoo, Mich.). All chemicals used are available from Aldrich Chemical Co., Milwaukee, Wis., unless otherwise specified. N-({(5S)-3-[3,5-difluoro-4-(4-thiomorpholinyl)phenyl]-2-oxo-1,3-oxazolidin-5-yl}methyl)acetamide was prepared as described in PCT International Publication Number WO 01/98297 (Barbachyn et al.).
DMSG isotherms were collected on the variable temperature controlled atmospheric microbalance. Approximately 10 mg samples were used in the balance. […] The mass was then measured every two minutes. […]

Bulk drug stability, % of initial HPLC peak area ([1]; 56° C., 75% relative humidity, Day 6): 100.1% | Bulk drug stability, % of initial HPLC peak area ([1]; 56° C., 75% relative humidity, Day 13): 99.3% | Bulk drug stability, % of initial HPLC peak area ([1]; 56° C., 75% relative humidity, Day 27): 99.9% | Bulk drug stability, % of initial HPLC peak area ([1]; 56° C., 75% relative humidity, Day 61): 100.1% | Bulk drug stability, % of initial HPLC peak area ([1]; 56° C., dessicator, Day 6): 100.1% | Bulk drug stability, % of initial HPLC peak area ([1]; 56° C., dessicator, Day 13): 99.4% | Bulk drug stability, % of initial HPLC peak area ([1]; 56° C., dessicator, Day 27): 100.0% | Bulk drug stability, % of initial HPLC peak area ([1]; 56° C., dessicator, Day 61): 99.8% | Bulk drug stability, % of initial HPLC peak area ([1]; 70° C., 75% relative humidity, Day 6): 100.1% | Bulk drug stability, % of initial HPLC peak area ([1]; 70° C., 75% relative humidity, Day 13): 99.6% | Bulk drug stability, % of initial HPLC peak area ([1]; 70° C., 75% relative humidity, Day 27): 99.9% | Bulk drug stability, % of initial HPLC peak area ([1]; 70° C., 75% relative humidity, Day 61): 99.9% | Bulk drug stability, % of initial HPLC peak area ([1]; 70° C., dessicator, Day 6): 100.1% | Bulk drug stability, % of initial HPLC peak area ([1]; 70° C., dessicator, Day 13): 99.7% | Bulk drug stability, % of initial HPLC peak area ([1]; 70° C., dessicator, Day 27): 100.0% | Bulk drug stability, % of initial HPLC peak area ([1]; 70° C., dessicator, Day 61): 100.0% | Bulk drug stability in aging tests (in words) ([1]; aging tests): excellent bulk drug stability | Hygroscopicity ([2]; dynamic moisture sorption scan 0 to 87% relative humidity): not hygroscopic | Moisture picked up during dynamic moisture sorption scan ([2]; scan from 0 to 87% relative humidity, 3% humidity steps, equilibrium time not more than 180 minutes per step): approximately 0.2%
Compound: CC(=O)NC[C@H]1CN(c2cc(F)c(N3CCS(=O)(=O)CC3)c(F)c2)C(=O)O1 [Anhydrous Crystalline Form, N-({(5S)-3-[4-(1,1-dioxido-4-thiomorpholinyl)-3,5-difluorophenyl]-2-oxo-1,3-oxazolidin-5-yl}methyl)acetamide]
